Results reported in US11066408B2, “Crystalline binary sodium salts of 5-methyl-(6S)-tetrahydrofolic acid with organic bases” (MERCK PATENT GMBH, priority 2017, dated 2021).

Procedure: The measurement of the kinetic solubility was conducted as described in the experimental part.
0.5 ml of purified/de-ionized water (for instance water for chromatography) is added.
2.535 ml of purified/de-ionized water (for instance water for chromatography) is added to the solid using an adjustable volumetric pipette. The mixture is vigorously agitated at room temperature and briefly sonicated.
Then 0.785 ml of purified/de-ionized water is added.
Then 1.0 ml of purified/de-ionized water is added.

Compound: CN1c2c([nH]c(N)nc2=O)NC[C@@H]1CNc1ccc(C(=O)N[C@@H](CCC(=O)[O-])C(=O)[O-])cc1.[Ca+2] [calcium salt of 5-methyl-(6S)-tetrahydrofolic acid]
- kinetic solubility in water (purified/de-ionized water, room temperature, agitated (briefly sonicated), not assay corrected): smaller than 10 mg per 1 ml of water
- time until a clear solution is obtained (weighed solid plus water, agitated at room temperature): No clear solution can be obtained
